# Where “and” joins values, the source holds several entries; their conditions need not be identical. Equal values may be shown once. Read-outs that look alike come from different tables or passages of the source.
# What was measured:
# Type in all cases: cell-based
# [1] = target: protein kinases (human kinome) (Homo sapiens, UniProt Q14289); settings: for logFC: PTK2B (Q14289-1) protein abundance, degrader vs DMSO, down; for logFC PTK2B: accession Q14289-1, direction of change down
# [2] = target: T1, protein kinases (human kinome) (Homo sapiens, UniProt Q14CZ7); settings: Accession Q14CZ7, direction down
# T1 sequence (Q14CZ7 1-662): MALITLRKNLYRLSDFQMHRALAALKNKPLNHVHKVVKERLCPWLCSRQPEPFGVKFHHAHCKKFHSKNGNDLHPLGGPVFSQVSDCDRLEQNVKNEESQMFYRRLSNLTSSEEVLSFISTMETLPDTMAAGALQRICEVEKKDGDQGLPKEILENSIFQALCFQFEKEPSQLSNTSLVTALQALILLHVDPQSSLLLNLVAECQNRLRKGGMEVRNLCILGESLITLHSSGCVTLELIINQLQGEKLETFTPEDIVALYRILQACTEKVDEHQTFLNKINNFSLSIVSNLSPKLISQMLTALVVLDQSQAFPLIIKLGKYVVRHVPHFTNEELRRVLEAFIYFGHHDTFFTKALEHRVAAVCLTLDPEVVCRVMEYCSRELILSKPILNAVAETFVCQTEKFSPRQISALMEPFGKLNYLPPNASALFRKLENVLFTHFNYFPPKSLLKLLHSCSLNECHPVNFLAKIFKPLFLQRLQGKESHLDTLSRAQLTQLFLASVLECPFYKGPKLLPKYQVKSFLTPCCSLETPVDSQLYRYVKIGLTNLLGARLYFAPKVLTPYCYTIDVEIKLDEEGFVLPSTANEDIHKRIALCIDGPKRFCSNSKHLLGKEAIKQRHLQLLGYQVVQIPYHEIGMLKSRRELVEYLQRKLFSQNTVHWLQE
# [3] = target: protein kinases (human kinome) (Homo sapiens, UniProt P41240); settings: for logFC of CSK: Accession P41240; for logFC CSK: CSK (P41240), down
# [4] = target: T2, protein kinases (human kinome) (Homo sapiens, UniProt Q969Z0); settings: Accession Q969Z0-1, direction down
# T2 sequence (Q969Z0 108-631): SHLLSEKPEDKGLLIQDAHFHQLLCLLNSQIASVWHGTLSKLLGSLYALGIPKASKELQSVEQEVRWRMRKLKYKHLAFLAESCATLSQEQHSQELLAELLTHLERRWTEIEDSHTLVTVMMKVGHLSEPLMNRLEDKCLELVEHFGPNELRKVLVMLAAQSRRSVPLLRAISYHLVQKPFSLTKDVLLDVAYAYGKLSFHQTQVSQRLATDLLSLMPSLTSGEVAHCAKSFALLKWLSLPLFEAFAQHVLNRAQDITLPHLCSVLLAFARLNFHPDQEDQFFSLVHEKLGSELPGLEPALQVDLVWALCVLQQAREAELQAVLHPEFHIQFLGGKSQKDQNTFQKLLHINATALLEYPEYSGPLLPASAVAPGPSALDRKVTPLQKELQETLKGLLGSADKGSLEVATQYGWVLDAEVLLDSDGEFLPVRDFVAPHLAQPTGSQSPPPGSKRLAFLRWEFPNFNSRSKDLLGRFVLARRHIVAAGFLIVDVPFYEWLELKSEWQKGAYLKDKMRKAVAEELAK
# [5] = target: T3, protein kinases (human kinome) (Homo sapiens, UniProt P33981); settings: for logFC TTK: Accession P33981
# T3 sequence (P33981 1-857): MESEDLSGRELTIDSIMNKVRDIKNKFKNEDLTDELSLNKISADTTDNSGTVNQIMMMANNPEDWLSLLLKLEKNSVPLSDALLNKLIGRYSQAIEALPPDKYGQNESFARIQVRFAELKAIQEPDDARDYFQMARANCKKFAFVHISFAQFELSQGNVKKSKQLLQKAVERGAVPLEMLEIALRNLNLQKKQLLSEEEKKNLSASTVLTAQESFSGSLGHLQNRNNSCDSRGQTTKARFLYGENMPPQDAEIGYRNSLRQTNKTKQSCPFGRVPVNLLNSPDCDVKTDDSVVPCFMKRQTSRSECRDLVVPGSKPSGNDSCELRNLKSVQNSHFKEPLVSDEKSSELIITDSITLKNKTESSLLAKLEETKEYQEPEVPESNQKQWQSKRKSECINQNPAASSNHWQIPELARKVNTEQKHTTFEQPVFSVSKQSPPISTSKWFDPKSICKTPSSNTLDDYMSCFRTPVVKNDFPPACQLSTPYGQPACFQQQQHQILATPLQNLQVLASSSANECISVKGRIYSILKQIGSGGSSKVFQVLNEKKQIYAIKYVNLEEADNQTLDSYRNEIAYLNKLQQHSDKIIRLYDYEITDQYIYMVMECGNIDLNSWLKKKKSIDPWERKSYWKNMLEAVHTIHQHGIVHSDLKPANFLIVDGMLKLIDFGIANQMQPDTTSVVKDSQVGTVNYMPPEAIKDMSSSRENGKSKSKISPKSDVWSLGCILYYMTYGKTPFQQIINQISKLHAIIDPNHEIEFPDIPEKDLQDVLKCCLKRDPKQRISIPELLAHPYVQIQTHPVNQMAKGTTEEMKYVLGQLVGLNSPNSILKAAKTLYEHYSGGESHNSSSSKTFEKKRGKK
# protein kinases (human kinome) (Homo sapiens, UniProt P41240), sequence (P41240 whole entry): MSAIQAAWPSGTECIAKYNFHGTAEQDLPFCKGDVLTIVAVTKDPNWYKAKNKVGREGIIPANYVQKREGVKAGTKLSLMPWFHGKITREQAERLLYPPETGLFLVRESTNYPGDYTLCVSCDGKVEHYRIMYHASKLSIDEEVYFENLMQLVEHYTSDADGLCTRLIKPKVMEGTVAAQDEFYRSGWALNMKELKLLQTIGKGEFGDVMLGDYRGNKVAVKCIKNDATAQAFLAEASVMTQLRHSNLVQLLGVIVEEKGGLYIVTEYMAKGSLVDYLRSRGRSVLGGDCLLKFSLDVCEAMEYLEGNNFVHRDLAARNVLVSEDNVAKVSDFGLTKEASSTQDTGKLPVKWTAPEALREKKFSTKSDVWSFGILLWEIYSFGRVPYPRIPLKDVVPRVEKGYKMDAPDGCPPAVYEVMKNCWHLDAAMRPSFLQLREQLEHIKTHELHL
# protein kinases (human kinome) (Homo sapiens, UniProt Q14289), sequence (Q14289 whole entry): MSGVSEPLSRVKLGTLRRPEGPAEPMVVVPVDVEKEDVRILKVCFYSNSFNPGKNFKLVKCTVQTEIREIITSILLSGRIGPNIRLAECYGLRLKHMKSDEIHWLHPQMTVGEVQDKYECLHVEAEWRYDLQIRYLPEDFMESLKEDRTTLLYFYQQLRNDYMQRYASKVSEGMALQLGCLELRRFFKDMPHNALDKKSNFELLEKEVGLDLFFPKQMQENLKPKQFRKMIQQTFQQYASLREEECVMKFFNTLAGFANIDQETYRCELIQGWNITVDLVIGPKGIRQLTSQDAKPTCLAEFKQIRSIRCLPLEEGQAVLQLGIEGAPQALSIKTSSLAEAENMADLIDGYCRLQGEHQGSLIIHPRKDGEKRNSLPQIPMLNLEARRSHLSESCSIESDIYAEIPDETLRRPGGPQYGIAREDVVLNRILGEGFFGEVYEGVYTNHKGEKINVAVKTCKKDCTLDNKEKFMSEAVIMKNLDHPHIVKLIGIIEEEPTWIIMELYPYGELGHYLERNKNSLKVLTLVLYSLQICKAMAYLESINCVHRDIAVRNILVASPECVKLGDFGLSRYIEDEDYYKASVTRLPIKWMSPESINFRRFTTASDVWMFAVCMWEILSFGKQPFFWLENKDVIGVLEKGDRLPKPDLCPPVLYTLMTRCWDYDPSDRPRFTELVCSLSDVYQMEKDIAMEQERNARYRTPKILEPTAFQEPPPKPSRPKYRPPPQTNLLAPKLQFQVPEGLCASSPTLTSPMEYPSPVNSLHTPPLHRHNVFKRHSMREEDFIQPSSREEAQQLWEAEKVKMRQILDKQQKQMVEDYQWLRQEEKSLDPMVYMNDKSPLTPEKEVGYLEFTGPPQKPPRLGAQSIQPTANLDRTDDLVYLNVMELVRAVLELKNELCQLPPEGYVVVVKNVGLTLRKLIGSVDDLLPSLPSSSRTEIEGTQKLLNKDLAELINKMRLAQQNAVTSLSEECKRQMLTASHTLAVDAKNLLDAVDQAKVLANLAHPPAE
smiles,measurement,setting,value
CC(C)S(=O)(=O)c1ccccc1Nc1nc(Nc2ccc(N3CCN(CCOCCNC(=O)CNc4cccc5c4C(=O)N(C4CCC(=O)NC4=O)C5=O)CC3)cc2)ncc1Cl (stereo not drawn) [SK.3.91],logFC,[1]; 1 uM,−3.603
same,logFC,[1]; 1 hr,−0.8056 and −1.043
same,logFC,[1]; 2 hr,−2.027 and −2.105
same,logFC PTK2B,"[1]; experiment wp016, 1 uM",−3.603
same,logFC PTK2B,[1]; experiment wp016,−3.824
same,logFC PTK2B,[1]; experiment wp114,−1.885
same,logFC PTK2B,"[1]; experiment wp133, 1 hr",−0.8056
same,logFC PTK2B,"[1]; experiment wp133, 2 hr",−2.027
same,logFC PTK2B,"[1]; experiment wp133, 4 hr",−3.96
same,logFC PTK2B,"[1]; experiment wp160, 1 hr",−1.043
same,logFC PTK2B,"[1]; experiment wp160, 2 hr",−2.105
same,logFC PTK2B,"[1]; experiment wp160, 4 hr",−2.773
same,logFC FASTKD3,"[2]; experiment wp160, 1 hr",−0.997
same,logFC of CSK,[3]; experiment wp016,−0.3254
same,logFC of CSK,"[3]; experiment wp016, 1 uM",−0.6596
same,logFC of CSK,[3]; experiment wp103,−0.4343
same,logFC of CSK,[3]; experiment wp105,−0.7044
same,logFC of CSK,[3]; experiment wp107,−0.5646
same,logFC of CSK,"[3]; experiment wp133, 4 hr",−0.5492
same,logFC of CSK,"[3]; experiment wp160, 4 hr",−0.4976
same,logFC of CSK,[3]; experiment wp172,−0.4225
same,logFC CSK,"[3]; experiment wp016, 1 uM",−0.6596
same,logFC CSK,[3]; experiment wp016,−0.3254
same,logFC CSK,[3]; experiment wp103,−0.4343
same,logFC CSK,[3]; experiment wp105,−0.7044
same,logFC CSK,[3]; experiment wp107,−0.5646
same,logFC CSK,"[3]; experiment wp133, 4 hr",−0.5492
same,logFC CSK,"[3]; experiment wp160, 4 hr",−0.4976
same,logFC CSK,[3]; experiment wp172,−0.4225
same,logFC TBRG4,"[4]; experiment wp160, 1 hr",−0.9113
same,logFC TTK,[5]; experiment wp103,−0.3267
same,logFC TTK,[5]; experiment wp107,−0.4781
same,logFC TTK,"[5]; experiment wp133, 2 hr",−0.3833
same,logFC TTK,"[5]; experiment wp133, 4 hr",−0.5052
same,logFC TTK (P33981),[5]; experiment wp103,−0.3267
same,logFC TTK (P33981),[5]; experiment wp107,−0.4781
same,logFC TTK (P33981),"[5]; experiment wp133, 2 hr",−0.3833
same,logFC TTK (P33981),"[5]; experiment wp133, 4 hr",−0.5052
CC(C)S(=O)(=O)c1ccccc1Nc1nc(Nc2ccc(N3CCN(CCOCCOCCNC(=O)CNc4cccc5c4C(=O)N(C4CCC(=O)NC4=O)C5=O)CC3)cc2)ncc1Cl (stereo not drawn) [TL12.186],logFC,[1],−3.722
same,logFC PTK2B,[1]; experiment wp016,−3.722
same,logFC FASTKD3,[2]; experiment wp137,−0.6244
same,logFC TBRG4,[4]; experiment wp137,−0.3425

# Source: patent US20240269139A1, “COMPOUNDS FOR TARGETED PROTEIN DEGRADATION OF KINASES” (DANA-FARBER CANCER INSTITUTE, INC., priority 2020, published 2024)
